Results on 2 compounds are retold here after patent US8785459B2, “Quinazoline compounds as kinase inhibitors” (Development Center for Biotechnology, priority 2011, dated 2014).

For orientation: IC50 means the midpoint of a concentration-inhibition curve. Higher therefore signals weaker potency in that assay. In general, inhibition refers to the change of the read-out against control, counted positive when it falls.

In one assay the target is C-Raf (Homo sapiens (Human), UniProt P04049). Nature of the assay: Raf kinase assay (C-Raf), [33P] incorporation into MEK1(K97R). The format is biochemical. In outline: (§1)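 [33P] transfer to kinase-dead MEK1(K97R) substrate (500 ng) measured after 30 min at 30 °C in Tris pH 7.5 buffer containing 8 μM ATP. Enzyme inputs were 2 ng for C-Raf and 5 ng for B-Raf and B-Raf V600E. Duplicate 3-fold serial dilutions gave the half-maximal inhibitory concentration.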
Sequence of C-Raf (P04049 whole entry): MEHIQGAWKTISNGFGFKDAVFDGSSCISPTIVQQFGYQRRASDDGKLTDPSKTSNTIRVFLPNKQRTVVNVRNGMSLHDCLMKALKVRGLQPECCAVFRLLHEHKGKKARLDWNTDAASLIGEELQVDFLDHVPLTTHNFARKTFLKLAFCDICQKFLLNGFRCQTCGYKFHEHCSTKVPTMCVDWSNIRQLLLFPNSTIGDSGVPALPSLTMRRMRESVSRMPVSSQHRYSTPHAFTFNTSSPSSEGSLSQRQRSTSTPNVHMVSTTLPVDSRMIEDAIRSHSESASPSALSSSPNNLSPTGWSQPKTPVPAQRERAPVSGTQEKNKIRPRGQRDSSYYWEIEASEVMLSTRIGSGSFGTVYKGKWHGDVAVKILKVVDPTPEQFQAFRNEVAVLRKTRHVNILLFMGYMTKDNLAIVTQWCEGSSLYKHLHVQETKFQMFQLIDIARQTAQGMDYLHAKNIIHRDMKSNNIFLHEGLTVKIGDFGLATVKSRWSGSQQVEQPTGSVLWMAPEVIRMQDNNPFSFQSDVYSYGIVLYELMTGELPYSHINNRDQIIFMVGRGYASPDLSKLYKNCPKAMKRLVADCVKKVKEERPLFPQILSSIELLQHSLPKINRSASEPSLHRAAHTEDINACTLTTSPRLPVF

A further assay addresses B-Raf (Homo sapiens (Human), UniProt P15056). Nature of the assay: Raf kinase assay (B-Raf), [33P] incorporation into MEK1(K97R). It is filed as biochemical. The conditions noted are these: for inhibition at 1 µM: 1.0 μM compound, read-out: B-Raf inhibition at 1.0 μM. The procedure, abridged: as §1
The target of a further assay is VEGFR2 kinase (Homo sapiens (Human), UniProt P35968). The assay can be described thus: VEGFR2 kinase assay. It is filed as biochemical. How it is done:
Inhibition of VEGFR2 kinase activity by compounds disclosed herein was quantified by measuring the amount of [^33P] incorporated into the substrate in the presence of a test compound. […] The reaction was then stopped by adding 5 μL of 3% phosphoric acid solution. The resultant solution was transferred to and harvested by a filter plate (UniFilter-96 GF/B, PerkinElmer). The filter plate was then washed 20 times with d.d. H2O for 5 min followed by the addition of 30 μL of MicroScint™-20 Cocktail (PerkinElmer). After the plate was sealed, the retained radioactivity on the filter was counted using a TopCount™ scintillation detector (PerkinElmer). […]

The target in a further assay is EGFR kinase (Homo sapiens (Human), UniProt P00533). The assay can be described thus: EGFR kinase assay. The format is biochemical. As to the method: Inhibition of EGFR kinase activity by compounds disclosed herein is quantified by measuring the amount of [^33P] incorporated into the substrate in the presence of a test compound. Briefly, a reaction mixture of 25 μL final volume containing 25 ng of EGFR kinase (EGFR kinase domain alone, Millipore), 3 μg of the substrate [poly(Glu-Tyr), Sigma], kinase reaction buffer (10 mM MOPS pH 7.0, 0.3 mM EDTA, 0.5% glycerol, 0.001% Brij-35, 10 mM MnCl2, 0.1 mg/ml BSA, 100 μM ATP, 0.1 μCi per well [^33P]-γ-ATP (2,500-3,000 Ci/mmol)), and a test compound (100 nM, diluted with 4% DMSO) or DMSO (as the control) was incubated at 30° C. for 30 minutes. The reaction was stopped by adding 5 μL of 3% phosphoric acid solution. The resultant reaction solution was then harvested onto a filter plate (UniFilter-96 GF/B, PerkinElmer), washed 20 times for 5 min with d.d. H2O, and followed by the addition of 30 μL of MicroScint™-20 Cocktail (PerkinElmer). The radioactivity retained on the filter membrane was measured by TopCount™ scintillation detector (PerkinElmer). The results were analyzed by using linear regression software (GraphPad Prism™ 4; GraphPad Software Inc.). IC50 value is defined as the concentration of the test compound which achieves a half-maximal inhibition of the kinase activity.
Sequence of EGFR kinase (P00533 712-979): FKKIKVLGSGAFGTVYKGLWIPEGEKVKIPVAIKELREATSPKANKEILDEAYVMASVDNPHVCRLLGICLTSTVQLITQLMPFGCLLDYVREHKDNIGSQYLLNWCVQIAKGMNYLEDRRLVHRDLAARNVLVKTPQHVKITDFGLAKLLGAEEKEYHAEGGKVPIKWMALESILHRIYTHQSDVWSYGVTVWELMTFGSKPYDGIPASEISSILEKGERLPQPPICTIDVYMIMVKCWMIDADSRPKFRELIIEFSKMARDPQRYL

Another assay has as its system COLO205. The assay can be described thus: Anti-proliferative activity, CellTiter-96 assay, COLO205. The format is cell-based. The conditions noted are these: Homo sapiens, COLO 205, COLO205 cells, 72 hours incubation. In outline:
(§2)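 Cells in DMEM with 10% FCS at 37° C., 5% CO2, plated at 2000 cells/well for 24 h, then exposed to graded compound concentrations for 72 h. CellTiter-96 Aqueous One reagent added for 4.0 h; viability read as absorbance at 490 nm.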

Another assay relates to MDA-MB-231. Nature of the assay: Anti-proliferative activity, CellTiter-96 assay, MDA-MB-231. The format is cell-based. The conditions noted are these: Homo sapiens, MDA-MB-231 cells, 72 hours incubation. The procedure, abridged: as §2
The target in another assay is FGFR1 kinase (Homo sapiens (Human), UniProt P11362). The assay can be described thus: FGFR1 kinase assay. It is filed as biochemical. How it is done: Inhibition of FGFR1 kinase activity by compounds disclosed herein was quantified by measuring the amount of [^33P] incorporated into the substrate in the presence of a test compound. Briefly, a reaction mixture of 25 μL final volume containing 1 ng of FGFR1 kinase (FGFR1 kinase domain alone, Millipore), 5 μg of the substrate [poly(Glu-Tyr), Sigma], kinase reaction buffer (14 mM MOPS pH 7.0, 0.2 mM EDTA, 0.5% glycerol, 0.001% Brij-35, 0.01% β-mercaptoethanol, 0.1 mg/ml BSA, 100 μM ATP, 0.1 μCi per well [^33P]-γ-ATP (2,500-3,000 Ci/mmol)), and a test compound (100 nM, diluted with 4% DMSO) or DMSO (as the control) was incubated at 30° C. for 60 minutes. The reaction was stopped by adding 5 μL of 3% phosphoric acid solution. The resultant reaction solution was then harvested onto a filter plate (UniFilter-96 GF/B, PerkinElmer), washed 20 times for 5 min with d.d. H2O, and followed by the addition of 30 μL of MicroScint™-20 Cocktail (PerkinElmer). The radioactivity retained on the filter membrane was measured by TopCount™ scintillation detector (PerkinElmer). The results were analyzed by using linear regression software (GraphPad Prism™ 4; GraphPad Software Inc.). IC50 value is defined as the concentration of the test compound which achieves a half-maximal inhibition of the kinase activity.
Sequence of FGFR1 kinase (P11362 478-767): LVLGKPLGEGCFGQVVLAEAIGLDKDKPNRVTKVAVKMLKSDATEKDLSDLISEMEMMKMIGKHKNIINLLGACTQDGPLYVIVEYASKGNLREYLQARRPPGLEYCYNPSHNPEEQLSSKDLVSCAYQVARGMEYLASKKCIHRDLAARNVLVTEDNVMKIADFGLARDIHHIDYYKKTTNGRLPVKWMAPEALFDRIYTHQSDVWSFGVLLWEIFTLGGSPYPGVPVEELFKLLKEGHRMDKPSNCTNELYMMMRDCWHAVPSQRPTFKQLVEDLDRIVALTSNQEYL

In another assay the test system is A549. The assay can be described thus: Anti-proliferative activity, CellTiter-96 assay, A549. The format is cell-based. The conditions noted are these: Homo sapiens, A549 cells, 72 hours incubation. In outline: as §2

Sequence of B-Raf (P15056 whole entry): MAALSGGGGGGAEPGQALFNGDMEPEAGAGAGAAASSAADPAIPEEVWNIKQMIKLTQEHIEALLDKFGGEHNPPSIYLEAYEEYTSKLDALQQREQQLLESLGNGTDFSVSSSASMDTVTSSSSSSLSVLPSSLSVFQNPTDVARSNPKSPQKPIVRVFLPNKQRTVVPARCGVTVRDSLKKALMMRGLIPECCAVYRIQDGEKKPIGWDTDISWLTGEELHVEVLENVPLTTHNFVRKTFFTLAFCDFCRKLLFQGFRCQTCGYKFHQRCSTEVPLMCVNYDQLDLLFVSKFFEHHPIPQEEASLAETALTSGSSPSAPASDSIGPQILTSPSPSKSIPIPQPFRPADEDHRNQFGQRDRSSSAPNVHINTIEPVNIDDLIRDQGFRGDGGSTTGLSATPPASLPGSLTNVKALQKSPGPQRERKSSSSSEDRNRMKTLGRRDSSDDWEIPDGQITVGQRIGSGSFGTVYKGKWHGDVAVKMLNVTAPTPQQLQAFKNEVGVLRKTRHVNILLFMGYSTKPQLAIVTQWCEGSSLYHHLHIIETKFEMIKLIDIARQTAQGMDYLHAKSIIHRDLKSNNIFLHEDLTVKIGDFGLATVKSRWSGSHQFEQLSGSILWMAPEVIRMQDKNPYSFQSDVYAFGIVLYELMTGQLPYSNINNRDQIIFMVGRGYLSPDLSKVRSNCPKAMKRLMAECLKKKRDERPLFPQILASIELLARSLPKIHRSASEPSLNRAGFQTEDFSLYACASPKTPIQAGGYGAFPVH
Sequence of VEGFR2 kinase (P35968 834-1162): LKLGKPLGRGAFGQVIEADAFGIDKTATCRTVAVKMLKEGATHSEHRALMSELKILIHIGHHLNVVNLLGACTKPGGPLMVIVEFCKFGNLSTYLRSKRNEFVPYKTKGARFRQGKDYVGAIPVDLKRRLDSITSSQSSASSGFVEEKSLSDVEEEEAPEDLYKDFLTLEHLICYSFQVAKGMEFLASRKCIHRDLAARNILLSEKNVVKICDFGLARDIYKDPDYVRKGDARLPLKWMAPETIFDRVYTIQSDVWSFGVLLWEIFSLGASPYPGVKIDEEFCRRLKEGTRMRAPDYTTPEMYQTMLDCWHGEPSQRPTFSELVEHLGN

As to `COc1cc(-c2ccc3ncnc(Nc4cccc(O)c4)c3c2)ccc1O` [Compound 8, 4-(4-(3-hydroxyphenylamino)quinazolin-6-yl)-2-methoxyphenol], the IC50 on C-Raf amounted to 255 nM; against B-Raf, 30.2 nM; on VEGFR2 kinase it was 139 nM; against EGFR kinase, 18.7 nM; in the assay with COLO205, 6700 ± 100 nM; in the assay on MDA-MB-231, 1500 ± 100 nM. In addition, the IC50 against FGFR1 kinase was 413 nM; in the assay with A549, 1100 ± 100 nM. For the same compound, the inhibition at 1 µM on B-Raf was determined as 94.2%.

Turning to `COc1cc(-c2ccc3ncnc(Nc4cc(O)ccc4F)c3c2)ccc1O` [Compound 58, 4-(4-(2-fluoro-5-hydroxyphenylamino)quinazolin-6-yl)-2-methoxyphenol], the IC50 amounted to 170 nM at C-Raf; 16.1 nM against B-Raf; 23.5 nM against VEGFR2 kinase; 14.9 nM against EGFR kinase; 3200 ± 300 nM with COLO205; 800 ± 300 nM in the assay on MDA-MB-231. Also, the IC50 against FGFR1 kinase turned out to be 131 nM; in the assay on A549, 500 ± 200 nM. In addition, at B-Raf, the inhibition at 1 µM worked out at 92.6%.
